1 molecule from ChEMBL document CHEMBL1151408 (J Nat Prod, 1983) can be followed below.

The species entered for experiment [1] is Mus musculus. The experiment in a line: Increase in hepatic ethylmorphine N-demethylase activity in mouse. Format: functional.
The species named for experiment [2] is Mus musculus. The experiment in a line: Increase in aryl hydrocarbon hydroxylase activity in mouse. It is filed as functional.

With `CO[C@H]1/C=C/O[C@@]2(C)Oc3c(C)c(O)c4c(O)c(c(/C=N/N5CCN(C)CC5)c(O)c4c3C2=O)NC(=O)/C(C)=C\C=C\[C@H](C)[C@H](O)[C@@H](C)[C@@H](O)[C@@H](C)[C@H](OC(C)=O)[C@@H]1C` [RIFAMPIN], the Activity in experiment [1] worked out at 85%; in experiment [2], 174%.
